From patent US20040101488A1, “Method for the prevention of septic shock lethality using curcumin” (priority 2000, published 2004)
“Also recorded” adds a separate entry of the source.

What was measured:
[1] = tested on: mice injected with lipopolysaccharide (septic shock); assay: LPS-induced septic shock in mice: survival and symptoms; format: in vivo; details: none prior
[2] = tested on: adhesion of human peripheral neutrophils to endothelial cells from human umbilical cord; assay: Cell adherence assay: neutrophil adhesion to endothelial monolayers; format: cell-based
Method: Endothelial cells grown to confluency in 96 well plates were incubated without or with indicated concentrations of curcumin for 1 hr followed by induction without (hatched bars) or with (closed bars) LPS (1 μg/ml) for 6 hrs. The cells were then incubated with human peripheral neutrophils for 1 hr. The amount of neutrophils adhering to the endothelial cell monolayers was measured by a colorimetric assay as described in Example 6.
Primary endothelial cells were isolated from human umbilical cord. For isolation of the cells the umbilical cord vein was canulated and then perfused with phosphate buffer saline to remove blood and then incubated with 0.125% trypsin for 15 mins at 37° C. The vein was then perfused with PBS and the cells were collected. […] The viability of endothelial cells in culture was checked by trypan blue exclusion test and the purity was determined by E-selectin staining. […]
Adhesion of neutrophils to endothelial monolayers was assayed as described previously (Dobrina A et al., J. Clin. Invest., 88:20-26 1991). […] The absorbance was determined at […] using an automated microplate reader (Anthos Labtech HT2, Austria).

[3] = tested on: neutrophils in the liver of LPS injected mice; assay: Liver histology, chloroacetate esterase staining of neutrophils after LPS challenge; details: 24 hrs after LPS challenge, liver sections, FIG. 2
[4] = tested on: mice injected with lipopolysaccharide (septic shock); assay: LPS-induced septic shock in mice: survival and symptoms; format: in vivo; details: for Percentage Survival: prior to and after LPS (40 mg/kg i.p.), mice
Method: In septic shock experiments, age-and body weight-matched (25-30 g) female swiss albino mice were injected intraperitoneally with 40 mg/kg LPS solubilised in 200 μl sterile 0.9% saline. Control animals received equal volumes of saline. For groups that were treated with curcumin, the mice were fed orally with 20 mg/kg to 60 mg/kg body weight curcumin suspended in olive oil (20 mg/ml) at various times prior to and after injecting LPS. The mice were fed with curcumin 4 hrs and 2 hrs prior to, simultaneously and 4 hrs, 16 hrs, 24 hrs, 48 hrs and 72 hrs after injecting LPS. Following this, the mice were observed every 2-3 hours after LPS injection with respect to septic shock symptoms such as fever, lethargy, diarrhea, watery eyes and survival.
Intraperitoneal injection of high doses of LPS (40 mg/kg) induced lethal endotoxin shock in mice. […] The death occurred within 24-48 hrs after receiving LPS. To test whether curcumin protects mice injected with LPS from septic shock, we treated mice with varying doses of curcumin 4 hrs and 2 hrs prior to, simultaneously and 4 hrs, 16 hrs, 24 hrs, 48hrs and 72 hrs after injecting LPS. […] Overall, severity of the septic shock symptoms in treated group was much less in comparison with control groups (as shown in Table 2). The mice start recovering within 48 to 72 hrs. Most importantly, 70% of the mice treated with 40 mg/kg to 60 mg/kg curcumin survived from death (FIG. 1).

COc1cc(/C=C/C(=O)CC(=O)/C=C/c2ccc(O)c(OC)c2)ccc1O [curcumin, diferuloylmethane]
survival of recovered mice on repeated LPS injection ([1]; curcumin only simultaneously with and after LPS (3, 6, 9, 24, 42 hrs)): all the animals survived; also recorded: all survived death
severity of septic shock symptoms in recovered mice on repeated LPS injection ([1]; curcumin only simultaneously with and after LPS): significant reduction in severity of septic shock symptoms
adhesion of neutrophils to unstimulated endothelial monolayers ([2]; 10 μM to 40 μM curcumin for 1 hr, no LPS): did not affect
inhibition of neutrophil adhesion to LPS stimulated endothelial cells ([2]; curcumin 40 μM for 1 hr, then LPS 1 μg/ml for 6 hrs, concentration dependent over 10 to 40 μM): almost complete inhibition
extravasation of neutrophils in the liver versus untreated mice [3]: much reduced
mice survived from death ([4]; 40 mg/kg to 60 mg/kg curcumin orally, LPS 40 mg/kg i.p., FIG. 1): 70%
Percentage Survival ([4]; curcumin 20 mg/kg body weight orally): 0%
Percentage Survival ([4]; curcumin 40 mg/kg body weight orally): 70%
Percentage Survival ([4]; curcumin 60 mg/kg body weight orally): 70%
severity of the septic shock symptoms versus control groups ([4]; curcumin treated mice, LPS 40 mg/kg i.p., lethargy, watery eyes, diarrhea): much less
protection of mice by low dose of curcumin ([4]; low dose, LPS 40 mg/kg i.p.): not able to protect the mice
